The subject of one data set is A-549. As to the kind of experiment: Cytotoxic activity, IC50, A-549. The data set is classed as cell-based. Particulars: Homo sapiens, A549.
The subject of a further data set is HT-29. As to the kind of experiment: Cytotoxic activity, IC50, HT-29. The following applies: Homo sapiens. The data set is classed as cell-based.
In another data set the test system is DU-145. Kind of data set: Cytotoxic activity, IC50, DU-145. The class given is cell-based. Particulars: Homo sapiens.
In a further data set the test system is MEL-28. Kind of data set: Cytotoxic activity, IC50, MEL-28. The data set is classed as cell-based. Particulars: Homo sapiens, SK-MEL-28.
Another data set concerns RAMOS. The following applies: ramos cells.
Another data set concerns P-388. As to the kind of experiment: Cytotoxic activity, IC50, P-388. The following applies: Mus musculus, P388. The data set is classed as cell-based.

SMILES strings stand for the structures. Some results are limits rather than exact numbers.

As a reminder, the IC50 is the concentration at which inhibition is half-maximal. In the case of `COc1c(C)cc2c(c1O)C1C3Cc4c(OC(C)=O)c(C)c5c(c4C(CNC(=O)C(CCCNC(=N)N)NC(=O)OC(C)(C)C)N3C(C#N)C(C2)N1C)OCO5` (centres unmarked), the IC50 in the data set with A-549 and in the data set on HT-29 was > 1 µM each time.
Consider `COc1c(C)cc2c(c1O)C1C3Cc4c(OC(C)=O)c(C)c5c(c4C(CNC(=O)C(Cc4c[nH]c6ccccc46)NC(=O)OC(C)(C)C)N3C(O)C(C2)N1C)OCO5` (centres unmarked), for which the midpoint of inhibition in the data set on HT-29, the IC50, lay at 0.012 µM.
Consider `COCOc1c(OC)c(C)cc2c1C1C3Cc4c(OC(C)=O)c(C)c5c(c4C(COC(=O)C=Cc4ccccc4)N3C(C#N)C(C2)N1C)OCO5` (centres unmarked), for which the IC50 in the data set on A-549, in the data set on DU-145, in the data set on HT-29 and in the data set on MEL-28 was 0.07 µM in each case.
`COc1c(C)cc2c(c1O)C1C3Cc4c(OC(C)=O)c(C)c5c(c4C(CNC(=O)CCC4CCCCC4)N3C(C#N)C(C2)N1C)OCO5` (centres unmarked) showed an IC50 with HT-29 of 0.0015 µM.
Take `COc1c(C)cc2c(c1O)C1C3Cc4c(OC(C)=O)c(C)c5c(c4C(COC(=O)C=Cc4ccccc4)N3C(O)C(C2)N1C)OCO5` (centres unmarked): the IC50 in the data set with A-549, with DU-145, in the data set on HT-29 and in the data set with MEL-28 was 0.0007 µM in each case.
The molecule `COc1c(C)cc2c(c1O)C1C3Cc4c(OC(C)=O)c(C)c5c(c4C(CNC(=O)c4cccnc4Cl)N3C(O)C(C2)N1C)OCO5` (centres unmarked) yielded an IC50 with HT-29 of 0.00015 µM.
As to `CCCC(=O)OCC1c2c(c(OC(C)=O)c(C)c3c2OCO3)CC2C3c4c(cc(C)c(OC)c4O)CC(C(O)N12)N3C` (centres unmarked), the IC50 in the data set with DU-145 and in the data set on HT-29 was 0.0001 µM in each case.
Turning to `COc1c(C)cc2c(c1O)[C@@H]1[C@@H]3Cc4c(OC(C)=O)c(C)c5c(c4[C@H](COC(=O)CCc4ccccc4)N3[C@@H](O)[C@H](C2)N1C)OCO5`, it took 1.86 nM to reach half-maximal inhibition in the data set on RAMOS (IC50).
For `COc1c(C)cc2c(c1O)C1C3Cc4c(OC(C)=O)c(C)c5c(c4C(COC(=O)C=Cc4ccccc4)N3C(C#N)C(C2)N1C)OCO5` (centres unmarked), the IC50 in the data set with P-388, in the data set on A-549, in the data set with DU-145, in the data set with HT-29 and in the data set with MEL-28 was 0.0007 µM in each case.
`COc1c(C)cc2c(c1O)[C@@H]1[C@@H]3Cc4c(OC(C)=O)c(C)c5c(c4[C@H](CNC(=O)Cc4ccccc4)N3[C@@H](O)[C@H](C2)N1C)OCO5`: the IC50 in the data set on P-388, in the data set on A-549, in the data set with DU-145, in the data set with HT-29 and with MEL-28 was 0.0007 µM throughout.
For the molecule `COc1c(C)cc2c(c1O)C1C3Cc4c(OC(C)=O)c(C)c5c(c4C(CNC(=O)c4cccnc4Cl)N3C(C#N)C(C2)N1C)OCO5` (centres unmarked), the IC50 in the data set with HT-29 was determined as 0.00015 µM.
The molecule `COc1c(C)cc2c(c1OC(=O)CCC1CCCCC1)C1C3Cc4c(OC(C)=O)c(C)c5c(c4C(CNC(=O)CCC4CCCCC4)N3C(C#N)C(C2)N1C)OCO5` (centres unmarked) gave an IC50 with HT-29 of 0.12 µM.
Take `COc1c(C)cc2c(c1O)C1C3Cc4c(OC(C)=O)c(C)c5c(c4C(CNC(=O)CC4CCCCC4)N3C(C#N)C(C2)N1C)OCO5` (centres unmarked): the midpoint of inhibition with HT-29, the IC50, lay at 0.0015 µM.
Turning to `COc1c(C)cc2c(c1O)[C@@H]1[C@@H]3Cc4c(OC(C)=O)c(C)c5c(c4[C@H](CNC(=O)CCc4ccccc4)N3[C@@H](O)[C@H](C2)N1C)OCO5`, the IC50 with DU-145 and in the data set with HT-29 was 0.0001 µM in each case.
Turning to `COc1c(C)cc2c(c1O)C1C3Cc4c(OC(C)=O)c(C)c5c(c4C(COC(=O)CCc4ccccc4)N3C(C#N)C(C2)N1C)OCO5` (centres unmarked), the half-maximal inhibitory concentration (IC50) with DU-145 and in the data set on HT-29 was 0.0001 µM each time.
As to `CCCC(=O)OCC1c2c(c(OC(C)=O)c(C)c3c2OCO3)CC2C3c4c(cc(C)c(OC)c4O)CC(C(C#N)N12)N3C` (centres unmarked), the IC50 with A-549, in the data set with DU-145 and with HT-29 was 0.0008 µM throughout.
Molecule `COc1c(C)cc2c(c1OC(=O)CC1CCCCC1)C1C3Cc4c(OC(C)=O)c(C)c5c(c4C(CNC(=O)CC4CCCCC4)N3C(C#N)C(C2)N1C)OCO5` (centres unmarked) showed a concentration for half-maximal inhibition (IC50) in the data set with HT-29 of 0.013 µM.
With `COc1c(C)cc2c(c1O)C1C3Cc4c(OC(C)=O)c(C)c5c(c4C(COC(=O)CCc4ccccc4)N3C(O)C(C2)N1C)OCO5` (centres unmarked), the IC50 in the data set on DU-145 and in the data set on HT-29 was 0.0001 µM throughout.
On to `COc1c(C)cc2c(c1O)C1C3Cc4c(OC(C)=O)c(C)c5c(c4C(COC(=O)C=Cc4cccc(C(F)(F)F)c4)N3C(O)C(C2)N1C)OCO5` (centres unmarked), for which the IC50 in the data set on DU-145 and with HT-29 was 0.0001 µM each time.
With `C/C=C/C(=O)NC[C@H]1c2c(c(OC(C)=O)c(C)c3c2OCO3)C[C@H]2[C@H]3c4c(cc(C)c(OC)c4O)C[C@@H]([C@H](C#N)N12)N3C`, the IC50 in the data set with A-549 was found to be 0.0008 µM; in the data set with DU-145 it was 0.0008 µM; in the data set on HT-29, 0.0001 µM.

Values taken from patent EP1496060B1, “Antitumoral analogs of ET-743” (PHARMA MAR, S.A., priority 2000, dated 2001).
